According to US8697694B2, “Substituted pyridine and pyrimidine derivatives and their use in treating viral infections” (priority 2008, dated 2014):

tested on: HCV replicon cells; experiment: Cell-based HCV replicon assay (replicon RNA level by real time PCR, Taqman); details: Hepatitis C virus, 72 h, HCV replicon cells, harvested day 3, replicon RNA by real time PCR; given as number; read-out: EC90 (μM) range
How it was run: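 HCV replicon cells treated 3 days with 10 serial 2-fold compound dilutions (top 25 μM to 1 μM; 0.5% DMSO, 10% FBS). Replicon RNA quantified by multiplex Taqman RT-PCR (NS5B amplicon, GAPDH control); EC50 and EC90 = concentrations giving ΔCT of 1 and 3.2 over baseline.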

Molecule `COCCNc1nc(C)c(-c2cc3cc(OCC4CC4)ncc3o2)c(N[C@@H]2C[C@H](CO)[C@@H](O)[C@H]2O)n1` [Example 59] has an EC90 of 2 µM.

same assay, conditions: Hepatitis C virus, 72 h, HCV replicon cells, harvested day 3, replicon RNA by real time PCR; reported as range class; read-out: EC90 (μM) range

First: CCOc1cc2cc(-c3c(Cl)nc(NCCOC)nc3N[C@@H]3C[C@H](CO)[C@@H](O)[C@H]3O)oc2c(C)n1 [Example 21]
Second: CCCOc1cc2cc(-c3c(C)nc(NCCOC)nc3N[C@@H]3C[C@H](CO)[C@@H](O)[C@H]3O)oc2cn1 [Example 60]
The EC90 of the first is lower: < 0.5 µM for the first, > 5 µM for the second.

`Nc1nc(Cl)c(-c2ccc(C=O)s2)c(N[C@@H]2C[C@H](CO)[C@@H](O)[C@H]2O)n1` [Example 155] and `Nc1nc(Cl)c(-c2ccc3c(c2)OCO3)c(N[C@@H]2C[C@H](CO)[C@@H](O)[C@H]2O)n1` [Example 151] cannot be ordered by EC90: > 5 µM for the first, > 5 µM for the second.

Compared with `CCOc1ccc2nc(-c3c(Cl)nc(N(C)C)nc3N[C@@H]3C[C@H](CO)[C@@H](O)[C@H]3O)sc2c1` [Example 203], `CCOCCNc1nc(C)c(-c2nc3ccccc3s2)c(N[C@@H]2C[C@H](CO)[C@@H](O)[C@H]2O)n1` [Example 208] is lower in EC90: > 5 µM for the first, < 0.5 µM for the second.

First: CCOc1cc2cc(-c3c(C)nc(Nc4ccccc4)nc3N[C@@H]3C[C@H](CO)[C@@H](O)[C@H]3O)oc2c(C)n1 [Example 33]
Second: CNc1nc(C)c(-c2cc3cc(OC)nc(C)c3o2)c(N[C@@H]2C[C@H](CO)[C@@H](O)[C@H]2O)n1 [Example 17]
The EC90 of the first is higher: > 5 µM for the first, < 0.5 µM for the second.

With `CO[C@@H](C)CNc1nc(C)c(-c2nc3ccccc3s2)c(N[C@@H]2C[C@H](CO)[C@@H](O)[C@H]2O)n1` [Example 229] the EC90 was < 0.5 µM.

same assay, conditions: Hepatitis C virus, 72 h, HCV replicon cells, harvested on day 3, replicon RNA by real time PCR; calculated EC90 reported as range class; read-out: EC90 (μM) range

`CCCCNc1nc(C)c(-c2nc3ccccc3s2)c(N[C@@H]2C[C@H](CO)[C@@H](O)[C@H]2O)n1` [Example 434] and `Cc1cc(CNc2nc(C)c(-c3nc4ccccc4s3)c(N[C@@H]3C[C@H](CO)[C@@H](O)[C@H]3O)n2)no1` [Example 492] cannot be ordered by EC90: < 0.5 µM for the first, < 0.5 µM for the second.

`CCc1cc2cc(-c3c(Cl)nc(NC(C)C)nc3N[C@@H]3C[C@H](CO)[C@@H](O)[C@H]3O)oc2cn1` [Example 502] and `CCc1cc2cc(-c3c(C)nc(NCCC(F)(F)F)nc3N[C@@H]3C[C@H](CO)[C@@H](O)[C@H]3O)oc2cn1` [Example 521] cannot be ordered by EC90: < 0.5 µM for the first, < 0.5 µM for the second.

First: COC(C)(C)CNc1nc(C)c(-c2nc3ccccc3s2)c(N[C@@H]2C[C@H](CO)[C@H]3OC(C)(C)O[C@H]32)n1 [Example 471]
Second: Cc1nc(N[C@@H](C)C(F)(F)F)nc(N[C@@H]2C[C@H](CO)[C@@H](O)[C@H]2O)c1-c1nc2ccccc2s1 [Example 132]
The EC90 of the first is lower: < 0.5 µM for the first, 0.5 to 5 µM for the second.

`Cc1nc(NCc2cccc(C(F)(F)F)c2)nc(N[C@@H]2C[C@H](CO)[C@@H](O)[C@H]2O)c1-c1nc2ccccc2s1` [Example 240] and `Cc1nc(NCc2ccccn2)nc(N[C@@H]2C[C@H](CO)[C@@H](O)[C@H]2O)c1-c1nc2ccccc2s1` [Example 465] cannot be ordered by EC90: < 0.5 µM for the first, < 0.5 µM for the second.

same assay, conditions: Hepatitis C virus, 72 h, HCV replicon cells, replicon RNA level by real time PCR (Taqman), harvested on day 3; calculated EC90 reported as range class; read-out: EC90 (μM) range

`Cc1cc2sc(-c3c(C)nc(NCC4CC4)nc3N[C@@H]3C[C@H](CO)[C@@H](O)[C@H]3O)nc2c(C)n1` [Example 1134] and `Cc1cc2sc(-c3c(C)nc(NCC(F)(F)F)nc3N[C@@H]3C[C@H](CO)[C@@H](O)[C@H]3O)nc2c(C)n1` [Example 1135] cannot be ordered by EC90: < 0.5 µM for the first, < 0.5 µM for the second.

First: COCCNc1nc(C)c(-c2nc3cc(OC)ccc3s2)c(N[C@@H]2C[C@H](CO)[C@@H](O)[C@H]2O)n1 [Example 1009]
Second: COCC(O)CNc1nc(C)c(-c2nc3ccccc3s2)c(N[C@@H]2C[C@H](CO)[C@@H](O)[C@H]2O)n1 (stereo partly shown) [Example 1062]
The EC90 of the first is lower: 0.5 to 5 µM for the first, > 5 µM for the second.

`COc1ccccc1CNc1nc(C)c(-c2nc3ccccc3s2)c(N[C@@H]2C[C@H](CO)[C@@H](O)[C@H]2O)n1` [Example 1207] and `Cc1ccccc1Nc1nc(C)c(-c2nc3ccccc3s2)c(N[C@@H]2C[C@H](CO)[C@@H](O)[C@H]2O)n1` [Example 1047] fall in the same range of EC90: 0.5 to 5 µM for the first, 0.5 to 5 µM for the second.

`[2H]C([2H])(Nc1nc(C)c(-c2nc3ccccc3s2)c(N[C@@H]2C[C@H](CO)[C@@H](O)[C@H]2O)n1)C(F)(F)F` [Example 1250] and `Cc1nc(NCC(F)(F)F)nc(N[C@@H]2C[C@H](CN3CCOCC3)[C@@H](O)[C@H]2O)c1-c1nc2ccccc2s1` [Example 1015] fall in the same range of EC90: 0.5 to 5 µM for the first, 0.5 to 5 µM for the second.

`COc1cccc(Nc2nc(C)c(-c3nc4ccccc4s3)c(N[C@@H]3C[C@H](CO)[C@@H](O)[C@H]3O)n2)c1` [Example 1122] and `COc1cccc(C)c1Nc1nc(C)c(-c2nc3ccccc3s2)c(N[C@@H]2C[C@H](CO)[C@@H](O)[C@H]2O)n1` [Example 1233] fall in the same range of EC90: 0.5 to 5 µM for the first, 0.5 to 5 µM for the second.

First: Cc1nc(NCC(C)(C)C)nc(N[C@@H]2C[C@H](CO)[C@H]3OC(C)(C)O[C@H]32)c1-c1cc2cc(C(C)(C)C)ncc2o1 [Example 1103]
Second: Cc1nc(NCC(C)(C)CO)nc(N[C@@H]2C[C@H](CO)[C@@H](O)[C@H]2O)c1-c1nc2cnccc2s1 [Example 1317]
The EC90 of the first is higher: > 5 µM for the first, < 0.5 µM for the second.

`COc1cc(CNc2nc(C)c(-c3nc4ccccc4s3)c(N[C@@H]3CC[C@@H](O)[C@H]3O)n2)cc(OC)c1` [Example 1206] and `COCCNc1nc(C)c(-c2nc3cc(OC(F)F)c(OC(F)F)cc3s2)c(N[C@@H]2C[C@H](CO)[C@@H](O)[C@H]2O)n1` [Example 1004] fall in the same range of EC90: 0.5 to 5 µM for the first, 0.5 to 5 µM for the second.

same assay, conditions: Hepatitis C virus, 72 h, HCV replicon cells, replicon RNA level by real time PCR, harvested day 3; read-out: EC90 (μM) range

`Cc1nc(NCCc2ccc(Cl)c(Cl)c2)nc(N[C@@H]2C[C@H](CO)[C@@H](O)[C@H]2O)c1-c1nc2cnccc2s1` [Example 1914] and `Cc1ccc(CCNc2nc(C)c(-c3nc4cnccc4s3)c(N[C@@H]3C[C@H](CO)[C@@H](O)[C@H]3O)n2)s1` [Example 1813] cannot be ordered by EC90: < 0.5 µM for the first, < 0.5 µM for the second.

`Cc1nc(NCC(F)(F)F)nc(N[C@@H]2CC[C@@H](O)C2O)c1-c1nc2ccccc2s1` (stereo partly shown) [Example 1625] and `Cc1nc(NCC2CC2)nc(N[C@@H]2CC[C@@H](O)C2O)c1-c1nc2ccccc2s1` (stereo partly shown) [Example 1626] fall in the same range of EC90: 0.5 to 5 µM for the first, 0.5 to 5 µM for the second.

`Cc1nc(NC2CC2)nc(N[C@@H]2C[C@H](CO)[C@@H](O)[C@H]2O)c1-c1nc2c(C)nccc2s1` [Example 1543] and `Cc1nc(N[C@H](C)c2ccc(OC(F)(F)F)cc2)nc(N[C@@H]2C[C@H](CO)[C@@H](O)[C@H]2O)c1-c1nc2c(C3CC3)nccc2s1` [Example 1401] cannot be ordered by EC90: < 0.5 µM for the first, < 0.5 µM for the second.

First: Cc1ccc([C@@H](C)Nc2nc(C)c(-c3nc4ccccc4o3)c(N[C@@H]3C[C@H](CO)[C@@H](O)[C@H]3O)n2)cc1 [Example 1360]
Second: CO[C@@H]1[C@H](O)[C@@H](CO)C[C@H]1Nc1nc(NCC(F)(F)F)nc(C)c1-c1nc2ccccc2o1 [Example 1354]
The EC90 of the first is higher: 0.5 to 5 µM for the first, < 0.5 µM for the second.

Compared with `Cc1nc(N[C@H](C)C2CC2)nc(N[C@@H]2C[C@H](C(C)O)[C@@H](O)[C@H]2O)c1-c1nc2cnccc2s1` (stereo partly shown) [Example 1642], `COc1ccc(CCNc2nc(C)c(-c3nc4cnccc4s3)c(N[C@@H]3CC[C@@H](O)[C@@]3(C)O)n2)cc1Cl` [Example 1818] is higher in EC90: < 0.5 µM for the first, 0.5 to 5 µM for the second.

`CCNC(=O)OC[C@H]1C[C@@H](Nc2nc(NCC(F)(F)F)nc(C)c2-c2nc3ccccc3s2)[C@H](O)[C@@H]1O` [Example 1628] and `CCN(C[C@H]1C[C@@H](Nc2nc(NCC(F)(F)F)nc(C)c2-c2nc3ccccc3s2)[C@H](O)[C@@H]1O)S(C)(=O)=O` [Example 1392] cannot be ordered by EC90: < 0.5 µM for the first, < 0.5 µM for the second.

Going from `Cc1nc(N[C@H](c2ccc(-n3cccn3)cc2)C(F)(F)F)nc(N[C@@H]2C[C@H](CO)[C@@H](O)[C@H]2O)c1-c1nc2c(C)nccc2s1` [Example 1530] to `Cc1nc(NCC2CC2)nc(N[C@@H]2CC[C@@H](O)[C@@]2(C)O)c1-c1nc2c(C)nccc2s1` [Example 1815], the EC90 falls from > 5 µM to < 0.5 µM.
